Data taken from patent US9261498B2, “Biomarker for sensitivity to mTOR inhibitor therapy in kidney cancer” (The Regents of the University of California, priority 2005, dated 2016).

Tests used:
[1] = test system: ACHN-VHL shRNA cells; assay: In vitro growth (cell counts), VHL knockdown cells; type: cell-based, human
Protocol: (§1) FIGS. 1A-1E. Effects of VHL knockdown on sensitivity to CCI-779. (a) Immunoblotting of lysates derived from shRNA and control (empty vector, V) in SN12C, using antibodies against VHL (both isoforms detected), HIF-1α, HIF-2α, GLUT-1, CA-IX and β-Actin (as a loading control). (b) SN12C-CSCG and SN12C-VHLshRNA cells (1×10^5) were cultured in 10% serum rich media, in the presence of vehicle, 1 or 10 nM of CCI-779 for 5 days. Cell growth was measured by cell counts (n=3). […] (c) SN12C-CSCG (C1) and SN12C-CSCG shVHL RNA (C2) cells were injected into SCID mice at a dose of 1×10^6 cells per mouse (n=30). When tumor volume reached 150 mm^3, mice were randomized to daily treatment with vehicle or 0.1 mg/kg of CCI-779. The change in tumor volume is plotted. Phosphorylated-S6 protein in SN12C-CSCG and SN12C-VHL shRNA xenograft tumors treated with vehicle or 0.1 mg/kg of CCI-779 was measured by immunoblot C3 and C4). Equal loading verified by actin immunoblots. […] (e) Schematic of shRNA-expressing lentivirus directed against VHL in pCSCG vector.
(§2) For in vitro experiments, cells (5×10^4) were plated and treated with 1 and 10 nM CCI-779 (kind gift of J. Gibbons, Wyeth) or vehicle (ethanol). On day 5-post treatment, cells were trypsinized, resuspended in DMEM with 10% FBS and counted using the VI CELL counter (Beckman Coulter), according to the manufacturer's instructions. Cell counts were done in triplicate and repeated on at least 3 independent occasions. In vivo tumorigenicity was measured by injection of 5×10^5 SN12C-CSCG, ACHN-CSCG, SN12C-CSCG-VHLshRNAi, ACHN-CSCG-VHLshRNAi, SN12C-CSCG-VHLshRNAi-pBABE, SN12C-CSCG-VHLshRNAi-pBABE-HA-HIF-2α (P405A; P531A) cells in 100 μl of Matrigel (Collaborative Biomedical) subcutaneously into the flanks of SCID mice. Tumor size were measured weekly in three dimensions using calipers as described (Klein, K. A. et al. Nat Med 3, 402-8 (1997)). When tumors reached 200 mm^3, all tumors received 0.1 mg/kg/daily of CCI-779 or vehicle. All mouse experiments were performed in compliance with the guidelines of the Animal Research Committee of the University of California at Los Angeles.
(§3) SN12C and ACHN (NCI60, DTP) were maintained in Dulbecco's modified Eagle's Medium (DMEM) supplemented with 10% FBS. […] On day 5-post treatment, cells were trypsinized, resuspended in DMEM with 10% FBS and counted using the VI-Cell XR automated cell viability analyzer (Beckmann Coulter). […] In vivo tumorigenicity was measured by injection of 5×10^5 SN12C-CSCG, ACHN-CSCG, SN12C-CSCG-VHL shRNA, ACHN-CSCG-VHL shRNA, SN12C-CSCG-VHL shRNA-pBABE, SN12C-CSCG-VHL shRNA-pBABE-HA-HIF-2α (P405A; P531A) cells in 100 μl of Matrigel (Collaborative Biomedical) subcutaneously into the flanks of SCID mice. Tumor size were measured weekly in three dimensions using calipers as described. […]

[2] = test system: SN12C-VHL shRNA cells; assay: In vitro growth (cell counts), VHL knockdown cells; type: cell-based, human
Protocol: as §1, §2, §3

[3] = test system: SN12C-CSCG and ACHN-CSCG xenograft tumors; assay: Subcutaneous xenograft tumor growth, parental tumors; type: in vivo, SCID mice; settings: 0.1 mg/kg CCI-779 daily
Protocol: FIGS. 1A-1E. Effects of VHL knockdown on sensitivity to CCI-779. (a) Immunoblotting of lysates derived from shRNA and control (empty vector, V) in SN12C, using antibodies against VHL (both isoforms detected), HIF-1α, HIF-2α, GLUT-1, CA-IX and β-Actin (as a loading control). (b) SN12C-CSCG and SN12C-VHLshRNA cells (1×10^5) were cultured in 10% serum rich media, in the presence of vehicle, 1 or 10 nM of CCI-779 for 5 days. Cell growth was measured by cell counts (n=3). […] (c) SN12C-CSCG (C1) and SN12C-CSCG shVHL RNA (C2) cells were injected into SCID mice at a dose of 1×10^6 cells per mouse (n=30). […] Phosphorylated-S6 protein in SN12C-CSCG and SN12C-VHL shRNA xenograft tumors treated with vehicle or 0.1 mg/kg of CCI-779 was measured by immunoblot C3 and C4). […]
For in vitro experiments, cells (5×10^4) were plated and treated with 1 and 10 nM CCI-779 (kind gift of J. Gibbons, Wyeth) or vehicle (ethanol). On day 5-post treatment, cells were trypsinized, resuspended in DMEM with 10% FBS and counted using the VI CELL counter (Beckman Coulter), according to the manufacturer's instructions. […] In vivo tumorigenicity was measured by injection of 5×10^5 SN12C-CSCG, ACHN-CSCG, SN12C-CSCG-VHLshRNAi, ACHN-CSCG-VHLshRNAi, SN12C-CSCG-VHLshRNAi-pBABE, SN12C-CSCG-VHLshRNAi-pBABE-HA-HIF-2α (P405A; P531A) cells in 100 μl of Matrigel (Collaborative Biomedical) subcutaneously into the flanks of SCID mice. […]

[4] = dose-dependent, 1 and 10 nM CCI-779, day 5

CO[C@H]1C[C@@H]2CC[C@@H](C)[C@@](O)(O2)C(=O)C(=O)N2CCCC[C@H]2C(=O)O[C@H]([C@H](C)C[C@@H]2CC[C@@H](OC(=O)C(C)(CO)CO)[C@H](OC)C2)CC(=O)[C@H](C)/C=C(\C)[C@@H](O)[C@@H](OC)C(=O)[C@H](C)C[C@H](C)/C=C/C=C/C=C/1C [CCI-779]
sensitivity to CCI-779 after stable VHL knockdown ([1]; FIG. 1D): enhanced sensitivity
reduction of cell growth [1, 4]: 70%
sensitivity to CCI-779 in contrast to the parental cells ([2]; 1 and 10 nM, in vitro): increased sensitivity
reduction of cell growth [2, 4]: 70%
growth of the parental tumors [3]: no effect
